From patent US20240253033A1, “MICROFLUIDIC DETECTION SYSTEM WITH ADJUSTABLE FLOW CONTROL” (priority 2022, published 2024)
In brackets after ≈: the same amount, converted by molar mass.

Assays:
S. pneumonia [1] = assay: QolorAST minimum inhibitory concentration (MIC) test; assay type: cell-based, Streptococcus pneumoniae
Procedure: (§1) Acinetobacter baumannii, Enterococcus faecalis, Enterococcus faecium, Streptococcus agalactiae, Enterobacter cloacae, Klebsiella pneumoniae, Streptococcus pneumoniae, E coli MG1655, and E coli Trimethoprim resistant were streaked on LB miller agar overnight at 37° C. and resuspended in water aliquot. Next, the bacterial concentration was determined using optical density technique. Subsequently, aliquots of different concentrations were prepared for the antibiotic susceptibility testing experiments in CamHB growth media.
(§2) 5×10^5 CFU ml^−1 Oxacillin-resistant S. aureus aliquots were prepared using resazurin/oxacillin solution using different concentrations of oxacillin antibiotic (16 μg/mL, 32 μg/mL, and 64 μg/mL). 5×10^5 CFU ml^−1 Cipro.
(§3) A minimum inhibitory concentration (MIC) was performed to study the QolorAST broad applicability in detecting bacterial resistance profiles and ensuring timely and efficient antimicrobial theraby. […] The antibiotics cover major bacterial inhibition mechanisms as inhibition of protein synthesis, cell wall synthesis, and/or DNA synthesis.
(§4) QolorAST exploited two methodologies: Manual MIC (MA-MIC) and support vector machine MIC (SVM-MIC). […] The SVM-MIC was carried out with a rbf kernel that was optimized and trained to predict the color change of the preclinical images using our library of bacteria images collected under different conditions including images where color is changed, color transitioning, and no color change. The SVM successfully classified the condition's bacteria-antibiotic in the concentration range studied.

A. baumannii [2] = assay: Conventional broth microdilution (BMD) MIC; assay type: cell-based, Acinetobacter baumannii
Procedure: (§5) For clinical MIC, bacteria were streaked on LB agar overnight and resuspended in a water aliquot. The aliquot was measured, and the bacteria concentration was adjusted to of 10^6 CFU ml^−1 in LB media. A 96 well plate with an antibiotic gradient from 128 μg/ml to 0.125 μg/ml in a 2-fold concentration dilution step was prepared with a positive control with no antibiotics. Next, the bacteria were introduced to each well of the 96 well plate for a final bacteria concentration of 5×10^5 CFU ml^−1. The well plates were cultured overnight the minimum inhibitory concentration was determined as the antibiotic concentration that didn't show any signs of bacterial growth.

E. cloacae [3] = assay: Conventional broth microdilution (BMD) MIC; assay type: cell-based, Enterobacter cloacae
Procedure: as §5

K. pneumonia [4] = assay: Conventional broth microdilution (BMD) MIC; assay type: cell-based, Klebsiella pneumoniae
Procedure: as §5

S. pneumonia [5] = assay: Conventional broth microdilution (BMD) MIC; assay type: cell-based, Streptococcus pneumoniae
Procedure: as §5

E. cloacae [6] = assay: QolorAST minimum inhibitory concentration (MIC) test; assay type: cell-based, Enterobacter cloacae
Procedure: as §1, §2, §3, §4

K. pneumonia [7] = assay: as above; assay type: cell-based, Klebsiella pneumoniae
Procedure: as §1, §2, §3, §4

A. baumannii [8] = assay: as above; assay type: cell-based, Acinetobacter baumannii
Procedure: as §1, §2, §3, §4

E coli = assay: Phenotypic QolorAST rapid AST (resazurin reduction); assay type: cell-based, Escherichia coli; details: 10^5 cfu/mL E coli, antibiotic concentrations, 0-60 min
Procedure: (§6) Resistant E. coli, Oxacillin-resistant S. aureus, and Cipro. Resistant PA respectively was used. The aliquots were incubated at 37° C. different periods starting from 0 minutes incubation till 60 minutes with a time step of 5 minutes.
(§7) Resistant PA respectively was used. The aliquots were incubated at 37° C. different periods starting from 0 minutes incubation until 60 minutes with a time step of 5 minutes.
(§8) MRSA and PA respectively.

MRSA [9] = assay: Conventional broth microdilution (BMD) MIC; assay type: cell-based, Staphylococcus aureus
Procedure: as §5

MRSA [10] = assay: QolorAST minimum inhibitory concentration (MIC) test; assay type: cell-based, Staphylococcus aureus
Procedure: (§9) Ampicillin-resistant E. coli strain mm294 was cultured overnight at 37° C. in Luria broth (LB) media supplemented with 100 μg/mL Ampicillin. […] Next, the bacterial concentration was determined by optical density technique using a Spectronic 21D spectrophotometer. Subsequently, aliquots of different concentrations were prepared for the antibiotic susceptibility testing experiments in LB media. Biotyper spectra (MALDI Bruker).
as §2, §3, §4

serum proteins = details: human serum; cited from earlier work
MRSA [11] = assay: Phenotypic QolorAST rapid AST (resazurin reduction); assay type: cell-based, Staphylococcus aureus; details: 10^5 cfu/mL MRSA, antibiotic concentrations, 0-60 min
Procedure: as §6, §7, §8

S. agalactiae [12] = assay: Conventional broth microdilution (BMD) MIC; assay type: cell-based, Streptococcus agalactiae
Procedure: as §5

S. agalactiae [13] = assay: QolorAST minimum inhibitory concentration (MIC) test; assay type: cell-based, Streptococcus agalactiae
Procedure: as §1, §2, §3, §4

Pseudomonas aeruginosa = assay: Phenotypic QolorAST rapid AST (resazurin reduction); assay type: cell-based; details: 10^5 cfu/mL PA, antibiotic concentrations, 0-60 min
Procedure: as §6, §7, §8

PA [14] = assay: QolorAST minimum inhibitory concentration (MIC) test; assay type: cell-based, Pseudomonas aeruginosa
Procedure: as §9, §2, §3, §4

PA [15] = assay: Conventional broth microdilution (BMD) MIC; assay type: cell-based, Pseudomonas aeruginosa
Procedure: as §5

E coli mm 294 = assay: QolorAST MIC test for E coli strains spiked in urine; assay type: cell-based, Escherichia coli; details: E coli mm 294 spiked in urine
Procedure: To obtain spiked human samples, first human urine was centrifuged at 5000 rcf for 5 minutes to remove large particles. It was subsequently spiked with 5×10^5 CFU ml^−1 and mixed with a solution of Resazurin to a final concentration of 0.02%. No antibiotics were added for the control aliquots, 32 μg/mL Ampicillin was added for resistant aliquots and 16 μg/mL Kanamycin was added for susceptible aliquots. The aliquots were incubated at 37° C. different periods starting from 0 minutes incubation till 60 minutes with a time step of 5 minutes.
According to the Infectious Diseases Society of America (IDSA), 105 CFU ml^−1 and 102 CFU ml^−1 were spiked in-vivo in urine, serum, and nasal swab of donors to simulate urinary tract infection, wound infection, and pneumonia by MRSA, respectively. Human urine was spiked with different concentrations of E. coli (FIG. 32D). As a control the healthy human biofluids were screened as received.

CC1(C)S[C@@H]2[C@H](NC(=O)[C@H](N)c3ccccc3)C(=O)N2[C@H]1C(=O)O [Ampicillin]
MA-MIC/SVM-MIC/MIC Category (S. pneumonia [1]): R/R/R*
QolorAST MIC Manual (MA-MIC) (S. pneumonia [1]): > 128 µg/mL
QolorAST MIC SVM (SVM-MIC) (S. pneumonia [1]): > 128 µg/mL
Broth Microdilution MIC (MIC) (A. baumannii [2]): >128
Broth Microdilution MIC (MIC) (E. cloacae [3]): >128
Broth Microdilution MIC (MIC) (K. pneumonia [4]): >128
Broth Microdilution MIC (MIC) (S. pneumonia [5]): >128
MA-MIC/SVM-MIC/MIC Category (E. cloacae [6]): R/R/R
QolorAST MIC Manual (MA-MIC) (E. cloacae [6]): > 128 µg/mL
QolorAST MIC SVM (SVM-MIC) (E. cloacae [6]): > 128 µg/mL
MA-MIC/SVM-MIC/MIC Category (K. pneumonia [7]): R/R/R
QolorAST MIC Manual (MA-MIC) (K. pneumonia [7]): > 128 µg/mL
QolorAST MIC SVM (SVM-MIC) (K. pneumonia [7]): 128 µg/mL
relative susceptibility from MIC values (K. pneumonia [7]): enhanced susceptibility to ampicillin over colistin
MA-MIC/SVM-MIC/MIC Category (A. baumannii [8]): R/R/R*
QolorAST MIC Manual (MA-MIC) (A. baumannii [8]): > 128 µg/mL
QolorAST MIC SVM (SVM-MIC) (A. baumannii [8]): > 128 µg/mL
MIC (A. baumannii [8]; both manually and through SVM): > 128 µg/mL
QolorAST colour readout over incubation (E coli): consistent color change from blue to green

Cc1onc(-c2ccccc2)c1C(=O)N[C@@H]1C(=O)N2[C@@H]1SC(C)(C)[C@@H]2C(=O)O [Oxacillin]
Broth Microdilution MIC (MIC) (MRSA [9]): 64
MA-MIC/SVM-MIC/MIC Category (MRSA [10]): R/R/R
QolorAST MIC Manual (MA-MIC) (MRSA [10]): 64 µg/mL
QolorAST MIC SVM (SVM-MIC) (MRSA [10]): 64 µg/mL
resistance or susceptibility (MRSA [10]): resistance
drug bounded to serum proteins (serum proteins): 93%
QolorAST colour readout over incubation (MRSA [11]): consistent color change from blue to green
Broth Microdilution MIC (MIC) (S. agalactiae [12]): 0.125
MA-MIC/SVM-MIC/MIC Category (S. agalactiae [13]): S/S/S*
QolorAST MIC Manual (MA-MIC) (S. agalactiae [13]): 0.125 µg/mL
QolorAST MIC SVM (SVM-MIC) (S. agalactiae [13]): 0.125 µg/mL
resistance or susceptibility (S. agalactiae [13]): susceptible

Gentamicin
QolorAST colour readout over incubation (Pseudomonas aeruginosa): consistent blue color
MA-MIC/SVM-MIC/MIC Category (PA [14]): S/S/S*
MIC outcomes (PA [14]): 0.5 µg/mL
QolorAST MIC Manual (MA-MIC) (PA [14]): 0.5 µg/mL
QolorAST MIC SVM (SVM-MIC) (PA [14]): 0.5 µg/mL
classification by clinical breakpoints (PA [14]): susceptible
Broth Microdilution MIC (MIC) (PA [15]): 0.5

NC[C@H]1O[C@H](O[C@H]2[C@H](O)[C@@H](O[C@H]3O[C@H](CO)[C@@H](O)[C@H](N)[C@H]3O)[C@H](N)C[C@@H]2N)[C@H](O)[C@@H](O)[C@@H]1O [Kanamycin]
MIC (E coli mm 294): 8 µg/mL (≈ 16.5 µM)
